These compounds were tested against BACE1 (Homo sapiens (Human), UniProt P56817) (assay: BACE1 efficacy assay (FRET-based, commercial BACE1 kit)). Conditions: test compound 10 μM.
Format: biochemical
Method: The efficacy assay was performed as a FRET-based assay using a commercially available BACE1 kit (Life Technologies, P2985). 2 μl test compound at 10 μM (final concentration) and 15 μl BACE1 enzyme from the kit (final concentration 3 nM) were preincubated for 15 minutes at room temperature before addition of 15 μl of substrate from the kit (250 nM final concentration) and incubated for additional 90 minutes at room temperature. The assay plate was subsequently read in a Pherastar (Ex540/Em590). The enzyme activity observed in presence of test compound were normalized to the enzyme activity observed in presence of buffer and 10 μM (final concentration) of the high affinity BACE1 reference inhibitor (S)-6-[3-Chloro-5-(5-prop-1-ynyl-pyridin-3-yl)-thiophen-2-yl] -2-imino-3,6-dimethyl-tetra-hydropyrimidin-4-one, respectively. The efficacy of the test compounds was evaluated at 10 μM (final concentration) and defined as the percent inhibition of the enzyme activity using the equation %inhibition=100% -normalized enzyme activity in percent.

Sequence of BACE1 (P56817 46-501): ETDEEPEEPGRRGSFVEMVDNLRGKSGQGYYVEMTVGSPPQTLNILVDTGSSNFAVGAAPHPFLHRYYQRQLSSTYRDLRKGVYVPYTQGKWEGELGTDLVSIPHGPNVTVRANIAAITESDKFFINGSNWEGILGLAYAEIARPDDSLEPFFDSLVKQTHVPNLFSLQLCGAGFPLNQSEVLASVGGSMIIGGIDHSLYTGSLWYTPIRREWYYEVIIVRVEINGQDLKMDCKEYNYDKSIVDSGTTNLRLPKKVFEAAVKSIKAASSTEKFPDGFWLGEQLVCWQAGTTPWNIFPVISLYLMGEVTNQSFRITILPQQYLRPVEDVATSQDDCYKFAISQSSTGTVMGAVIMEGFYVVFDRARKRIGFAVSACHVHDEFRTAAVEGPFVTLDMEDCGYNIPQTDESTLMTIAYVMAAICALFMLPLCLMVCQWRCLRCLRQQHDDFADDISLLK

Row | Compound | inhibition at 10 µM
1 | [2H]C([2H])([2H])Oc1ccc(C(=O)Nc2ccc(F)c([C@@]3(C(F)F)N=C(N)CCC3(F)F)c2)nc1 [Compound 13, (S)-N-(3-(6-amino-2-(difluoromethyl)-3,3-difluoro-2,3,4,5-tetrahydropyridin-2-yl)-4-fluorophenyl)-5-(methoxy-d3)picolinamide] | 103%
2 | NC1=N[C@@](c2cc(NC(=O)c3ccc(F)cn3)ccc2F)(C(F)F)C(F)(F)CC1 [Compound 2, (S)-N-(3-(6-amino-2-(difluoromethyl)-3,3-difluoro-2,3,4,5-tetrahydropyridin-2-yl)-4-fluorophenyl)-5-fluoropicolinamide] | 100%
3 | NC1=N[C@@](c2cc(NC(=O)c3cnc(C(F)F)cn3)ccc2F)(C(F)F)C(F)(F)CC1 [Compound 6, (S)-N-(3-(6-amino-2-(difluoromethyl)-3,3-difluoro-2,3 ,4,5-tetrahydropyridin-2-yl)-4-fluorophenyl)-5-(difluoromethyl)pyrazine-2-carboxamide] | 103%
4 | [2H]C([2H])([2H])Oc1cnc(C(=O)Nc2ccc(F)c([C@@]3(C(F)F)N=C(N)CCC3(F)F)c2)cn1 [Compound 14, (S)-N-(3-(6-amino-2-(difluoromethyl)-3,3-difluoro-2,3,4,5-tetrahydropyridin-2-yl)-4-fluorophenyl)-5-(methoxy-d3)pyrazine-2-carboxamide] | 108%
5 | NC1=N[C@@](c2cc(NC(=O)c3ccc(Cl)cn3)ccc2F)(C(F)F)C(F)(F)CC1 [Compound 1, (S)-N-(3-(6-amino-2-(difluoromethyl)-3,3-difluoro-2,3,4,5-tetrahydropyridin-2-yl)-4-fluorophenyl)-5-chloropicolinamide] | 106%

More lines, now with the values ahead:

Row | inhibition at 10 µM | Compound
6 | 106% | COc1cnc(C(=O)Nc2ccc(F)c([C@@]3(C(F)F)N=C(N)CCC3(F)F)c2)c(C)n1 [Compound 10, (S)-N-(3-(6-amino-2-(difluoromethyl)-3,3-difluoro-2,3,4,5-tetrahydropyridin-2-yl)-4-fluorophenyl)-5-methoxy-3-methylpyrazine-2-carboxamide]
7 | 102% | Cc1csc(C(=O)Nc2ccc(F)c([C@@]3(C(F)F)N=C(N)CCC3(F)F)c2)n1 [Compound 8, (S)-N-(3-(6-amino-2-(difluoromethyl)-3,3-difluoro-2,3,4,5-tetrahydropyridin-2-yl)-4-fluoro-phenyl)-4-methylthiazole-2-carboxamide]
8 | 101% | COc1ccc(C(=O)Nc2ccc(F)c([C@@]3(C(F)F)N=C(N)CCC3(F)F)c2)nc1 [Compound 5, (S)-N-(3-(6-amino-2-(difluoromethyl)-3,3-difluoro-2,3,4,5-tetrahydropyridin-2-yl)-4-fluorophenyl)-5-methoxypicolinamide]
9 | 104% | Cc1nc(C(=O)Nc2ccc(F)c([C@@]3(C(F)F)N=C(N)CCC3(F)F)c2)co1 [Compound 4, (S)-N-(3-(6-amino-2-(difluoromethyl)-3,3-difluoro-2,3,4,5-tetrahydropyridin-2-yl)-4-fluorophenyl)-2-methyloxazole-4-carboxamide]
10 | 103% | COc1cnc(C(=O)Nc2ccc(F)c([C@@]3(C(F)F)N=C(N)CCC3(F)F)c2)cn1 [Compound 3]
11 | 103% | COc1cnc(C(=O)Nc2ccc(F)c([C@@]3(C(F)F)N=C(N)CCC3(F)F)c2)nc1 [Compound 9, (S)-N-(3-(6-amino-2-(difluoromethyl)-3,3-difluoro-2,3,4,5-tetrahydropyridin-2-yl)-4-fluorophenyl)-5-methoxypyrimidine-2-carboxamide]

Source: patent publication US10045974B2, “2-amino-6-(difluoromethyl)-5,5-difluoro-6-phenyl-3,4,5,6-tetrahydropyridines as BACE1 inhibitors” (H. Lundbeck A/S, priority 2014, dated 2018)
